Biological target: NEK7 (Homo sapiens, UniProt Q8TDX7)
Assay: biochemical in vitro kinase assay (Reaction Biology), 10-dose IC50, […] ATP

Chain of NEK7 (Q8TDX7 whole entry): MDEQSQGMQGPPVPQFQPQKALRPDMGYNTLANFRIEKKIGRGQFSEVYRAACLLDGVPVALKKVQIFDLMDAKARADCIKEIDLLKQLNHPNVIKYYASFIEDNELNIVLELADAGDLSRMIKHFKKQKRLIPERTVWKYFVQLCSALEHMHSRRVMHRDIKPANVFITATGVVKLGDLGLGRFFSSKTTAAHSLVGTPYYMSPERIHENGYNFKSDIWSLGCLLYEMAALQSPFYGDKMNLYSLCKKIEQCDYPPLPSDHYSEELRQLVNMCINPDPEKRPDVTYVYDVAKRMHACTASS

IC50: 2.85 µM
SMILES: CCN1CCN(c2ccc(Nc3ncc4scc(-c5cccc(C(=O)NCCN(C)C)c5)c4n3)cc2)CC1 [SLC3037, N-(2-(Dimethylamino)ethyl)-3-(2-((4-(4-ethylpiperazin-1-yl)phenyl)amino)thieno[3,2-d]pyrimidin-7-yl)benzamide]
